Measured values published in patent US12594278B2, “Method for treatment of muscular dystrophy” (CHILDREN'S NATIONAL MEDICAL CENTER, priority 2019, dated 2026).

Key:
FAP = details: stated without data; cited from earlier work
A2-B6A/J mice = experiment: Notexin injury of A2-B6A/J TA muscle with or without recombinant AnxA2; assay type: in vivo, mouse; details: 10 μg AnxA2 at injury site, 28 d after injury, vs notexin alone
Protocol: To test if this was also true in vivo, the AnxA2-naïve A2-B6A/J mice were used for receiving notexin to injure their muscle with or without the addition of 10 μg purified AnxA2 at the site of injury. […] This provides direct evidence supporting that extracellular AnxA2 is not only necessary, but also sufficient for driving FAP-mediated in vivo adipogenic conversion of the regenerating dysferlinopathic muscles.
Microscopy and Image Analysis. Microscopy was performed using an Olympus BX61 VS120-S5 Virtual Slide Scanning System with UPlanSApo 40×/0.95 objective, Olympus XM10 monochrome camera or Allied vision Pike F-505C color camera, and Olympus VS-ASW FL 2.7 imaging software. […] Perilipin-1 quantification was performed by thresholding the image to exclude non-specific staining and then calculating the area of each lipid deposit encircled by perlipin-1 (excluding those in the epi- or perimysium) using MetaMorph software (Molecular Devices). The total area encircled by perilipin-1 was calculated for all lipid deposits across the muscle and expressed relative to the total cross-sectional area. PDGFRα and AnxA2 positive area was calculated using CellSens software (Olympus) by thresholding to remove non-specific staining and calculating the total positive area (again, excluding any epi- or perimysial staining) relative to the entire muscle cross-section. […]

B6A/J FAPs = experiment: Spontaneous adipogenesis of purified B6A/J FAPs treated with recombinant AnxA2 (Oil Red O); assay type: cell-based, mouse; details: 100 nM AnxA2 from day 3; 24Mo B6A/J FAPs; vs AnxA2 untreated FAPs
From the text: The contribution of AnxA2 to the adipogenic fate of the FAPs was next examined in dysferlin-deficient muscle. For this FAPs were isolated from 12Mo WT, B6A/J and A2-B6A/J muscle and their spontaneous adipogenesis in vitro was quantified. […] The spontaneous adipogenesis of B6A/J FAPs indicates these cells are committed to adipogenesis prior to extraction, which can be caused by the pro-adipogenic niche in dysferlinopathic muscle. The lack of spontaneous adipogenesis in A2-B6A/J FAPs can be caused by the lack of a pro-adipogenic niche or restricted adipogenic potential of the FAPs in the absence of AnxA2 (FIG. 8). As adipogenic replacement of muscle is enhanced with age, the niche (PDGFRα^−) and FAP (PDGFRα^+) cells from 24Mo B6A/J and A2-B6A/J muscles were isolated to allow for the niche cells to reach their maximal potential. These FAP and niche cells were then mixed in a 1:1 ratio (20,000 cells total; 10,000 FAPs) from the same or different genetic background and their spontaneous adipogenesis was quantified as the extent of oil red staining/20,000 FAPs. […] To directly test if it is the AnxA2 or another factor secreted by the niche cells that influences FAP adipogenesis, a purified population of B6A/J FAPs ([…]) were treated with 100 nM AnxA2 and their spontaneous adipogenesis was quantified as the extent of oil red staining/20,000 FAPs. […]

Row | Compound | FAP adipogenesis (FAP) | accumulation of PDGFRα FAPs in TA after notexin injury (A2-B6A/J mice) | perilipin-1 labeled adipogenic deposits in TA after notexin injury (A2-B6A/J mice) | increase in spontaneous adipogenic differentiation of dysferlinopathic FAPs (oil red staining/20,000 FAPs) (B6A/J FAPs)
1 | CC(CN1c2ccccc2Sc2ccccc21)N(C)C (stereo not shown) [promethazine] | inhibits FAP adipogenesis | – | – | –
2 | AnxA2: recombinant AnxA2 (RayBiotech, #230-30023), membrane repair protein Annexin A2 | – | increased accumulation | increased accumulation | > 2 fold
